Read-outs that look alike come from different tables or passages of the source.
Experiments:
[1] = system: Herpes Simplex Type II (Viral Strain HG52); assay: Herpes Simplex Type II Plaque Reduction Assay; assay type: cell-based; settings: for Plaque Count: replicate counts; for EC50: HSV type II
Text: (§1) For testing the N-Bu-DNJ against HSV, the HSV Type II strain HG52 described by Timbury, J. Gen. Virol. 13, 373-376 (1971), and Davis et al., Analyst 110, 605-609 (1985), is useful. For testing against CMV, the prototype CMV ADl69 strain described, for example, by Tyms et al., J. Gen. Virol. 68, 1563-1573 (1987), and in U.S. Pat. No. 4,743,560, is useful. Another useful CMV strain is the Towne strain described by Glazer et al., Ann. Inter. Med. 91, 676-683 (1979).
(§2) Human embryo fibroblast cells (HEF) were grown in Eagles minimal essential medium supplemented with 7% fetal calf serum (FCS), 9 mM sodium bicarbonate and 7 mM HEPES buffer. In maintenance medium the supplements were adjusted to 2% FCS, 13 mM sodium bicarbonate and 14 mM HEPES. CMV, strain Towne, and HSV type II, strain […], were used in the following tests. CMV virus stocks were prepared and stored by technique as previously described by Tyms & Williamson, Nature 297, 690-691 […]. Herpes virus stocks were prepared and stored by technique as previously described by Davis et al., Analyst 110, 605-609 (1985). The HEF were human embryonic lung fibroblasts, strain MRC-5, as described by Tyms and Williamson, Nature 297, 690-691 (1982).
(§3) For plaque reduction assays, 24-well culture trays were seeded with HEF cells. Confluent monolayers were infected with virus to give initially about 100 plaque-forming-units (p.f.u.) per well. After a one hour absorption period the inocula were replaced by l.5ml of a maintenance medium incorporating 0.5% low gelling temperature agarose, supplemented with various concentrations of test compound. For tests with CMV, infected monolayers were fixed with 5% formalin in phosphate buffered saline (PBS) at 6-8 days post-infection and stained with 0.3% methylene blue after removal of the overlay; whereas, tests with HSV were conducted in the same manner but with the monolayer fixing at 2 days post infection. The mean plaque number was calculated from a multiple series of counts (e.g., duplicate, triplicate or quadruplicate), converted to a percentage of untreated controls and values plotted against the log10 drug concentration. The 50% effective dose (ED50) was determined from best line fits for the curves.
The mean plaque numbers determined on HEF cells exposed to varying amount of N-Bu-DNJ, N-Me-DNJ, N-He-DNJ, 2-deoxy-D-glucose and castanospermine were converted to percentage values (plaque count in presence of drug divided by mean value of untreated controls×100), and plotted as a function of drug concentration [drug (mM)].
The 50% effective dose (ED50)--that amount of drug needed to reduce plaque count by 50%--was calculated to give the following values: […]

[2] = system: HEF cells (strain MRC-5); assay type: cell-based, human
Experimental: Triplicate titer plates were seeded with human embryo fibroblast (HEF) cells (about 7.5×10^3 cells/well), and after 4 days of growth in the absence of presence of 2-deoxy-D-glucose and N-Bu-DNJ were counted and compared to a control without test compound.

[3] = system: Cytomegalovirus (Viral Strain Towne); assay: Cytomegalovirus Plaque Reduction Assay; assay type: cell-based; settings: for Plaque Count: replicate counts
Text: as §1, §2, §3
In a similar manner, the Effective Dosage Values (ED50) were determined from the curves of FIG. 1. A least squares fit of the data of FIG. 1 to an equation of the form: y=mx+b gave the following values: […]
From these values, a 50% effective dose (ED50) was calculated to give the following values: […]

[4] = system: Cytomegalovirus (Viral Strain Towne); assay: Yield Reduction Assay against infections with CMV (Towne strain); assay type: cell-based; settings: for activity at 500 µM / activity at 2000 µM: read-out: % Virus Control
Experimental: Antiviral activities of N-Bu-DNJ and comparative test compounds against infections with CMV (Towne strain) were also measured by the yield reduction assay as follows:
HEF cells (MRC-5) were infected at high multiplicity of infection (about one p.f.u. per cell) and incubated with various concentrations of the test compounds for 5 and 6 days post infection. The level of infectious virus shed into the extracellular fluid was determined at 5 and 6 days by plaque assays as described above, using serial dilution of extracellular fluid to bring readings on scale.
In Table VI, to calculate plaque-forming units (PFU) of the maintenance medium overlayering HEF cells, the plaque count at the most sensitive dilution (from Table V) was multiplied by dilution value and then by 5 (0.2 ml sample volumes used in test) to give PFU (per ml maintenance medium). (e.g. calculation of drug control: 31×10^3 ×5=1.6×10^5 PFU).

[5] = system: HIV; settings: Tyms et al., Lancet, 1987; cited from earlier work
[6] = system: HEF cells (strain MRC-5); assay: HEF cell growth / monolayer appearance in HSV type II plaque reduction assay; assay type: cell-based, human
Experimental: as §3

[7] = Human betaherpesvirus 5, MRC5, 120 h
[8] = Human betaherpesvirus 5, MRC5, 144 h

O=CC[C@@H](O)[C@H](O)[C@H](O)CO [2-Deoxy-D-glucose, 2-deoxy-D-glucose, reference compound]
inhibitory effect on herpesvirus type II (in words) ([1]; 2.5 mM): no inhibitory effect was observed | activity at 2500 µM ([1]; HEF, Table II, 2.5 mM, read-out: % Virus control): ≥ 100% | activity at 5000 µM ([1]; HEF, Table II, 5.0 mM, read-out: % Virus control): 77% | Plaque Count Avg ([1]; Table II, 2.5 mM): 91 | Plaque Count ([1]; Table II, 2.5 mM): 94,88 | Plaque Count Avg ([1]; Table II, 5.0 mM): 69 | Plaque Count ([1]; Table II, 5.0 mM): 61,76 | inhibitory effect on growth of normal cells (in words) [2]: substantially inhibits the growth

CN1C[C@H](O)[C@@H](O)[C@H](O)[C@H]1CO [N-Me-DNJ, Nmethyl deoxynojirimycin]
antiviral activity against HSV type II (in words) [1]: substantially reduce herpesvirus type II infection of HEF cells | EC50 ([1]; HEF, amount of drug needed to reduce plaque count by 50%, read-out: 50% effective dose (ED50)): 2800 µM | activity at 280 µM ([1]; HEF, Table I, 0.28 mM, read-out: % Virus Control): ≥ 100% | activity at 560 µM ([1]; HEF, Table I, 0.56 mM, read-out: % Virus Control): 99% | activity at 1120 µM ([1]; HEF, Table I, 1.12 mM, read-out: % Virus Control): 88% | activity at 2240 µM ([1]; HEF, Table I, 2.24 mM, read-out: % Virus Control): 50% | activity at 4480 µM ([1]; HEF, Table I, 4.48 mM, read-out: % Virus Control): 18% | Plaque Count Avg ([1]; Table I, 0.28 mM): 84 | Plaque Count ([1]; Table I, 0.28 mM): 72,95 | Plaque Count Avg ([1]; Table I, 0.56 mM): 77 | Plaque Count ([1]; Table I, 0.56 mM): 79,74 | Plaque Count Avg ([1]; Table I, 1.12 mM): 69 | Plaque Count ([1]; Table I, 1.12 mM): 63,74 | Plaque Count Avg ([1]; Table I, 2.24 mM): 39 | Plaque Count ([1]; Table I, 2.24 mM): 48,29 | Plaque Count Avg ([1]; Table I, 4.48 mM): 14 | Plaque Count ([1]; Table I, 4.48 mM): 9,19

O[C@H]1[C@H](O)[C@@H](O)CN2CC[C@H](O)[C@H]12 [Castanospermine, castanospermine, reference compound]
activity at 250 µM ([1]; HEF, Table II, 0.25 mM, read-out: % Virus control): 56% | activity at 500 µM ([1]; HEF, Table II, 0.5 mM, read-out: % Virus control): 53% | activity at 1000 µM ([1]; HEF, Table II, 1.0 mM, read-out: % Virus control): 42% | activity at 2000 µM ([1]; HEF, Table II, 2.0 mM, read-out: % Virus control): 50% | activity at 4000 µM ([1]; HEF, Table II, 4.0 mM, read-out: % Virus control): 36% | Plaque Count Avg ([1]; Table II, 0.25 mM): 50 | Plaque Count ([1]; Table II, 0.25 mM): 46,54 | Plaque Count Avg ([1]; Table II, 0.5 mM): 48 | Plaque Count ([1]; Table II, 0.5 mM): 52,44 | Plaque Count Avg ([1]; Table II, 1.0 mM): 38 | Plaque Count ([1]; Table II, 1.0 mM): 21,55 | Plaque Count Avg ([1]; Table II, 2.0 mM): 45 | Plaque Count ([1]; Table II, 2.0 mM): 61,28 | Plaque Count Avg ([1]; Table II, 4.0 mM): 32 | Plaque Count ([1]; Table II, 4.0 mM): 33,32 | EC50 ([3]; Human betaherpesvirus 5, HEF, CMV, calculated from least squares fit of FIG. 1, read-out: 50% effective dose (ED50)): 600 µM | activity at 250 µM ([3]; Human betaherpesvirus 5, HEF, Table IV, 0.25 mM, read-out: % Virus control): 81% | activity at 500 µM ([3]; Human betaherpesvirus 5, HEF, Table IV, 0.50 mM, read-out: % Virus control): 55% | activity at 1000 µM ([3]; Human betaherpesvirus 5, HEF, Table IV, 1.0 mM, read-out: % Virus control): 30% | activity at 2000 µM ([3]; Human betaherpesvirus 5, HEF, Table IV, 2.0 mM, read-out: % Virus control): 12% | Plaque Count Avg ([3]; Table IV, 0.25 mM): 166 | Plaque Count ([3]; Table IV, 0.25 mM): 146,191,184,144 | Plaque Count Avg ([3]; Table IV, 0.50 mM): 113 | Plaque Count ([3]; Table IV, 0.50 mM): 108,112,122,111 | Plaque Count Avg ([3]; Table IV, 1.0 mM): 61 | Plaque Count Avg ([3]; Table IV, 2.0 mM): 25 | PFU ([4]; 0.5 mM, 5 days HEF growth): 2.1 × 10^4 PFU (per ml maintenance medium | PFU ([4]; 0.5 mM, 6 days HEF growth): 2.3 × 10^4 PFU (per ml maintenance medium | PFU ([4]; 2.0 mM, 5 days HEF growth): 2.3 × 10^3 PFU (per ml maintenance medium | PFU ([4]; 2.0 mM, 6 days HEF growth): 1.8 × 10^3 PFU (per ml maintenance medium | activity at 500 µM [4, 7]: 13% | activity at 2000 µM [4, 7]: 1.4% | activity at 500 µM [4, 8]: 6.2% | activity at 2000 µM [4, 8]: 0.48% | block of HIV growth (in words) [5]: found to block the growth of the AIDS-associated virus HIV

CCCCCCN1C[C@H](O)[C@@H](O)[C@H](O)[C@H]1CO [N-He-DNJ, Nhexyl deoxynojirimycin]
EC50 ([1]; HEF, tested up to 1.1 mM, read-out: estimated ED50): ~250 µM | activity at 560 µM ([1]; HEF, Table III, 0.56 mM, read-out: % Virus Control): 31.4% | activity at 1120 µM ([1]; HEF, Table III, 1.12 mM, read-out: % Virus Control): 15.7% | Plaque Count Avg ([1]; Table III, 0.56 mM): 16 | Plaque Count Avg ([1]; Table III, 1.12 mM): 8 | Plaque Count ([1]; Table III, 2.25 mM): trace | Plaque Count ([1]; Table III, 4.5 mM): none | size of plaques compared to control test (in words) ([1]; Table III, 2.25 and 4.5 mM): significantly reduced | antiviral activity against HSV type II (in words) ([1]; up to 1.1 mM): substantial antiviral activity | HEF cell growth (in words) ([6]; 0.56 and 1.12 mM): grew normally | appearance of HEF cell monolayers (in words) ([6]; 2.25 and 4.5 mM): looked thin | cell growth (in words) ([6]; higher concentrations (above 1.1 mM)): cell growth also was retarded

OC[C@H]1NC[C@H](O)[C@@H](O)[C@@H]1O [DNJ, 1,5-dideoxy-l,5-imino-Dglucitol]
block of HIV growth (in words) [5]: found to block the growth of the AIDS-associated virus HIV

From patent publication US4957926A, “Method of treating herpesviruses” (priority 1988, dated 1990)
